Converted amounts (≈) assume the structure as drawn. “And” between values parts separate entries of the source, which are not always exact repeats. Equal entries are not always repeated. Where two headings read alike, the source gives them in different places. Ends that are not written are not given here. Peptide text beside a SMILES is read from it.
What was measured:
A. baumannii BAA747 = assay type: cell-based, Acinetobacter baumannii
Description: (§1) The minimum inhibitory concentration of a peptide is the concentration at which no observable bacterial growth can be determined by visual inspection. MIC values are useful for determining the potential of a test article as a therapeutic, as well as in comparison to other test articles. A variety of antimicrobial peptides were tested for activity against an array of clinically relevant bacterial strains. The sequences of SMAP-29 derivatives and their key features can be seen in Table 1, with peptides being named in reference to how they were originally published. Peptides OV3-00 and OV3-01 were utilized in this study. Because the template (or parental) peptide, SMAP-29, derived from sheep leukocytes, is hemolytic to human red blood cells, efforts were made to enhance the therapeutic index of the peptide leading to the creation of OV and OV3 [14, 19]. Various derivatives were made and OV3 came to represent two distinct peptides in the literature: the peptide labeled OV3 and a peptide with an additional c-terminal YG, herein labeled OV3-00. Previous work in our laboratory utilized OV3 for the design and synthesis of ATCUN domain peptides, but it lacks a tryptophan or tyrosine residue that allows for more ready quantification of the peptide concentration by the extinction coefficient, leading to a less accurate, more difficult, concentration analysis by mass spectrometry. To ease quantification and facilitate studies on the OV3 series in our laboratory, and compare the effect of the added YG, additional work was pursued using the longer OV3-00 and OV3-01 derivatives.
(§2) Minimum inhibitory concentrations (MICs) of test molecules were established by broth dilution assays. Mid-log phase bacterial cultures of a variety of clinically important organisms were diluted and incubated with a serial dilution of each peptide, starting at 128 µM. The concentration of peptide at which no visible growth occurred was marked as the MIC. Bacterial strains were incubated in Mueller–Hinton Broth (MHB) at 37 degrees Celsius until the OD600 reached between 0.8 and 1. The resulting culture was subsequently diluted 100× into 96-well plates with the test articles. Positive and negative controls containing only MHB incubated with bacteria and MHB, respectively, were also included on the plate. Each 96-well plate was incubated for 16–20 h, and the MIC was determined by visual inspection. To determine the colony-forming units (CFUs) present in each assay, 100 µL of the 100× diluted culture was further diluted by 1000× and plated on agar plates and determined by use of Equation (1). The colonies were counted to ensure that the CFU value was between 10^4 and 10^5. CFU/mL = (mean # of colonies/0.1 mL) (1000 (dilution factor))(1)

E. faecium 700221 (VRE) = assay type: cell-based
Description: as §1, §2

P. aeruginosa 27583 = assay type: cell-based
Description: as §1, §2

K. pneumoniae 700603 = assay type: cell-based
Description: as §1, §2

S. aureus 43300 (MRSA) = assay type: cell-based
Description: as §1, §2

E. coli 25922 [1] = assay type: cell-based, Escherichia coli
Description: as §1, §2

E. coli 25922 [2] = assay: FIC of peptide pairs (two-way dilution, 96-well plate); assay type: cell-based, Escherichia coli; conditions: single peptide on the FIC plate, initial screen, one value given
Description: Determining MIC values informed decisions on testing peptides in combination. Fractional inhibitory concentrations determine the ability of test articles to act in concert against a pathogen. FIC determination is experimentally similar to MIC determination, except one test article is diluted down the wells and another is diluted across the wells of the 96-well plate in order to test the synergism of two peptides. […] Synergy is defined as an FIC of less than or equal to 0.5, meaning there is a four-fold reduction in the concentration of each peptide required for inhibition. Any number above 4 indicates a deleterious interaction that reduces the effectiveness of each peptide, and a value between 0.5 and 1 can be considered additive (Equation (2)).
Fractional inhibitory concentrations (FICs) were determined in a manner similar to MIC determinations but with serial dilutions of two peptides running both horizontally and vertically across the 96-well plate. Determination of the FIC can be seen in Equation (2), where FIC is the fractional inhibitory concentration, [A] is the concentration of substrate A at MIC in combination, [B] is the concentration of substrate B at MIC in combination, and MICA and MICB are the MIC of substrate A and substrate B, respectively. FIC = fractional inhibitory concentration, [A] = concentration of A at MIC in combination, [B] = concentration of B at MIC in combination, MICA = minimum inhibitory concentration of A, and MICB = minimum inhibitory concentration of B. When FIC ≤ 0.5 the results are synergistic. If FIC > 4, the results are antagonistic, and when FIC > 0.5, the results are indifferent or additive. (2) FIC=[A]/MICA+ [B]/MICB

Row | Compound | MIC (A. baumannii BAA747; A. baumannii BAA747, Gram (-), broth dilution in MHB, 37 °C, 16–20 h, visual inspection) [µM] | MIC (E. faecium 700221 (VRE); E. faecium 700221 (VRE), Gram (+), broth dilution in MHB, 37 °C, 16–20 h, visual inspection) [µM] | MIC (P. aeruginosa 27583; P. aeruginosa 27583, Gram (-), broth dilution in MHB, 37 °C, 16–20 h, visual inspection) [µM] | MIC (K. pneumoniae 700603; K. pneumoniae 700603, Gram (-), broth dilution in MHB, 37 °C, 16–20 h, visual inspection) [µM] | MIC (S. aureus 43300 (MRSA); S. aureus 43300 (MRSA), Gram (+), broth dilution in MHB, 37 °C, 16–20 h, visual inspection) [µM] | MIC (E. coli 25922 [1]; E. coli 25922, Gram (-), broth dilution in MHB, 37 °C, 16–20 h, visual inspection, dilution from 128 µM) [µM] | MIC (A. baumannii BAA747; BAA747) [µM] | MIC (E. faecium 700221 (VRE); 700221 (VRE)) [µM] | MIC (P. aeruginosa 27583; 27583) [µM] | MIC (K. pneumoniae 700603; 700603) [µM] | MIC (S. aureus 43300 (MRSA); 43300) [µM] | MIC (E. coli 25922 [1]; 25922) [µM] | MICA/MICB, concentration with no growth when dosed separately (E. coli 25922 [2])
1 | CC[C@H](C)[C@H](NC(=O)[C@H](CC(C)C)NC(=O)[C@H](C)NC(=O)[C@@H]1CCCN1C(=O)[C@H](CC(C)C)NC(=O)CNC(=O)[C@@H](NC(=O)[C@@H](NC(=O)[C@H](CC(C)C)NC(=O)[C@@H](NC(=O)[C@H](CCCCN)NC(=O)[C@H](CCCCN)NC(=O)[C@@H](NC(=O)[C@H](C)NC(=O)[C@@H](NC(=O)[C@@H](NC(=O)[C@H](CC(C)C)NC(=O)[C@H](CCCCN)NC(=O)[C@H](CCCCN)NC(=O)[C@@H](NC(=O)[C@H](Cc1ccccc1)NC(=O)[C@H](CO)NC(=O)[C@H](CCCCN)NC(=O)[C@H](Cc1c[nH]c2ccccc12)NC(=O)[C@H](CCCCN)NC(=O)[C@H](Cc1c[nH]cn1)NC(=O)CNC(=O)CN)[C@@H](C)CC)[C@@H](C)O)[C@@H](C)O)C(C)C)C(C)C)[C@@H](C)O)[C@@H](C)O)C(=O)N[C@@H](CO)C(N)=O [CP29-01] | 1 (≈ 3.12 µg/mL) | 4 (≈ 12.5 µg/mL) | 2 (≈ 6.25 µg/mL) | 8 (≈ 25 µg/mL) | 16 (≈ 50 µg/mL) | 8 (≈ 25 µg/mL) |  |  |  |  |  |  | 
2 | GGHGIGKFLHSAKKWGKAFVGEIMNS-NH2 [Mag2-01] |  |  |  |  |  |  | 8 | 32 | 64 | 64 | >128 | 16 | 
3 | IRRIIRKIIHIIKKYG-NH2 [OV3-00] |  |  |  |  |  |  | 4 | 4 | 16 | 4 | 8 | 2 | 
4 | CC[C@H](C)[C@H](NC(=O)[C@H](Cc1c[nH]cn1)NC(=O)CNC(=O)CN)C(=O)N[C@@H](CC(C)C)C(=O)N1CCC[C@H]1C(=O)N[C@@H](Cc1c[nH]c2ccccc12)C(=O)N[C@@H](CCCCN)C(=O)N[C@@H](Cc1c[nH]c2ccccc12)C(=O)N1CCC[C@H]1C(=O)N[C@@H](Cc1c[nH]c2ccccc12)C(=O)N[C@@H](Cc1c[nH]c2ccccc12)C(=O)N1CCC[C@H]1C(=O)N[C@@H](Cc1c[nH]c2ccccc12)C(=O)N[C@@H](CCCNC(=N)N)C(=O)N[C@@H](CCCNC(=N)N)C(=O)NCC(=O)NCC(=O)N[C@@H](CS)C(N)=O [IND-01] |  |  |  |  |  |  | 32 (≈ 76 µg/mL) | 8 (≈ 19 µg/mL) | >64 | >64 | 64 (≈ 152 µg/mL) | 32 (≈ 76 µg/mL) | 
5 | GGHIRRIIRKIIHIIKKYG-NH2 [OV3-01] |  |  |  |  |  |  | 8 | 4 | 16 | 16 | 16 | 4 | 
6 | GGHYLGALLGPLMNLLQ-NH2 [PFQα-01] |  |  |  |  |  |  | 128 | >128 | >128 | >128 | 16 | >128 | 
7 | CC(C)C[C@H](NC(=O)[C@H](Cc1ccccc1)NC(=O)[C@@H]1CCCN1C(=O)[C@H](Cc1c[nH]c2ccccc12)NC(=O)[C@H](Cc1c[nH]c2ccccc12)NC(=O)[C@H](Cc1c[nH]c2ccccc12)NC(=O)[C@@H]1CCCN1C(=O)[C@H](Cc1ccccc1)NC(=O)[C@H](CCCNC(=N)N)NC(=O)[C@H](CCCNC(=N)N)NC(=O)[C@@H](N)C(C)C)C(=O)N[C@@H](CCCNC(=N)N)C(=O)N[C@@H](CCCNC(=N)N)C(N)=O [TRP, tritrpticin] |  |  |  |  |  |  | 8 (≈ 15.2 µg/mL) | 2 (≈ 3.8 µg/mL) | 16 (≈ 30.4 µg/mL) | 32 (≈ 60.8 µg/mL) | 8 (≈ 15.2 µg/mL) | 8 (≈ 15.2 µg/mL) | 
8 | NCC(=O)NCC(=O)N[C@@H](Cc1c[nH]cn1)C(N)=O [GGH] (H-Gly-Gly-His-NH2) |  |  |  |  |  |  | >128 | >128 | >128 | >128 | >128 | >128 | 
9 | FVQWFSKFLGRIL-NH2 [TempL] |  |  |  |  |  |  | 4 | 8 | 32 | 16 | 4 | 4 | 
10 | GILAWKWAWWAWRR-NH2 [CP10A] |  |  |  |  |  |  | 8 | 8 | 64 | 32 | 4 | 16 | 
11 | GGHGVRRFPWWWPFLRRGGC-NH2 [TRP-03, ATCUN derivative of tritrpticin] |  |  |  |  |  |  |  |  |  |  |  |  | 16 µM
12 | GGHVRRFPWWWPFLRRGGC-NH2 [TRP-01] |  |  |  |  |  |  | 16 | 8 | 64 | 32 | 32 | 32 | 
13 | GGHGVRRFPWWWPFLRR-NH2 [TRP-02, ATCUN derivative of tritrpticin] |  |  |  |  |  |  |  |  |  |  |  |  | 8 µM and 16 µM

Reference: paper PMC9692552, “Activity and Synergy of Cu-ATCUN Antimicrobial Peptides” (International Journal of Molecular Sciences, 2022)
